Here are results for 3 molecules from ChEMBL document CHEMBL1144092, “5-Oxonoraporphines from Mitrephora cf. maingayi” (1999).

For assay [1], the system named is Aedes aegypti. In words: Larvicidal activity against Aedes aegypti larvae. Format: functional.
The subject of assay [2] is P388. In words: Cytotoxicity against mouse P388 cells. The assay is classed as functional. Conditions: P388, read-out: ED50.

SMILES strings stand for the structures. Values after ≈ are worked out from the molar mass of the structure shown. Active and inactive are the calls of the source. No cut-off for these calls is given here.

Turning to `COc1c2c3c(c(OC)c1OC)-c1ccccc1C[C@H]3NC(=O)C2`, the result in assay [1] was inactive. In assay [2], the EC50 is over 30 µg/mL.
On the same counts, the results for `COc1c(O)c2c3c(c1OC)-c1ccccc1C[C@H]3NC(=O)C2` are “inactive” and over 30 µg/mL.
On to `COc1c(OC)c(OC)c2c3c(cc4ccccc42)NC(=O)C(=O)c13` [OUREGIDIONE], for which the LC50 (commonly the concentration lethal to half of the exposed cells or organisms) in assay [1] amounted to 10000 µg/mL (≈ 29.6 mM).
